We go through nine compounds from the NIST ThermoML archive (doi:10.1021/je900302n).

Numbers after ± are expanded uncertainties.

For this data set the following is noted: Liquid; pulse heating.
With `CCCCCCCCCC[O][Ti]([O]CCCCCCCCCC)([O]CCCCCCCCCC)[O]CCCCCCCCCC` [tetra(decyloxy)titanium], the Critical pressure is 610 ± 40 kPa and the Critical temperature worked out at 882 ± 18 K.

`CC[O-].CC[O-].CC[O-].CC[O-].[Ti+4]` [tetraethoxytitanium]: the Critical pressure turned out to be 1400 ± 80 kPa and the Critical temperature is reported as 647 ± 12 K.

Turning to `CCCCCCC[O][Ti]([O]CCCCCCC)([O]CCCCCCC)[O]CCCCCCC` [tetraheptoxytitanium], the Critical pressure was 730 ± 40 kPa and the Critical temperature turned out to be 808 ± 16 K.

As to `CCCCCC[O][Ti]([O]CCCCCC)([O]CCCCCC)[O]CCCCCC` [tetrakis(hexyloxy)titanium], the Critical pressure came out at 780 ± 40 kPa and the Critical temperature is listed as 780 ± 16 K.

`CCCCC[O][Ti]([O]CCCCC)([O]CCCCC)[O]CCCCC` [tetrakis(pentyloxy)titanium]: the Critical pressure is reported as 910 ± 60 kPa and the Critical temperature is on record as 751 ± 16 K.

On to `CCCCCCCCC[O][Ti]([O]CCCCCCCCC)([O]CCCCCCCCC)[O]CCCCCCCCC` [tetranonoxytitanium], for which the Critical pressure amounted to 630 ± 40 kPa and the Critical temperature is 855 ± 18 K.

As for `CCCCCCCC[O][Ti]([O]CCCCCCCC)([O]CCCCCCCC)[O]CCCCCCCC` [tetraoctoxytitanium], the Critical pressure is given as 660 ± 40 kPa and the Critical temperature came to 831 ± 16 K.

As for `CCC[O-].CCC[O-].CCC[O-].CCC[O-].[Ti+4]` [tetrapropoxytitanium], the Critical pressure is reported as 1150 ± 80 kPa and the Critical temperature was found to be 685 ± 14 K.

`CCCC[O-].CCCC[O-].CCCC[O-].CCCC[O-].[Ti+4]` [titanium(IV) butan-1-olate]: the Critical pressure is reported as 1020 ± 60 kPa and the Critical temperature amounted to 719 ± 14 K.
